Assay results reported in US20030033631A1, “Method for reducing pest damage to corn by treating transgenic corn seeds with thiamethoxam pesticide” (Monsanto Technology, L.L.C., priority 2000, published 2003).

System: western and northern corn rootworm
Assay: Field trial of corn rootworm feeding damage to corn roots (Iowa 1-6 rating)
Format: in vivo
Conditions: Cry3Bb.11231 transgenic corn seeds treated with thiamethoxam (300 or 400 gm AI/100 kg seed) compared with transgenic seeds without pesticide treatment, Iowa 1-6 root rating
Excerpt: Field trials for the determination of efficacy of transgenic event Cry3Bb.11231 in corn seed in combination with corn root worm pesticide seed treatments against western and northern corn rootworm.
Field trials can be run in accordance with pertinent protocols and in conformance with USDA notification requirements. The purpose of the trials is to determine the efficacy of transgenic event Cry3Bb.11231 in corn seed in combination with corn root worm seed treatments against western and northern corn root worm.
For each growing site that is selected, the plot design would included the following:
The following seed treatment combinations can be used for each growing area: […]
The determination of damage by corn rootworm can be made according to the following protocol. […] In that system, the root systems of 10 corn plants per plot are recovered and scored using the 1-6 rating scale, where: 1=no injury or only a few minor feeding scars, 2=feeding injury evident, but no roots eaten back to 1½ inches of the plant, 3=at least one root eaten off to within 1½ inches of the plant, but never an entire node of roots destroyed, 4=one node of roots eaten back to within 1½ inches of the plant, 5=two nodes (circles) of roots eaten back to within 1½ inches of the plant, 6=three nodes (circles) of roots eaten back to within 1½ inches of the plant.

Q: Which “resistance to corn rootworm damage” value does the source give for `CN1COCN(Cc2cnc(Cl)s2)/C1=N\[N+](=O)[O-]` [thiamethoxam, 3-[(2-chloro-5-thiazolyl)mehthyl]tetrahydro-5-methyl-N-nitro-4H-1,3,5-oxadiazin-4-imine] here?
A: more resistant to corn rootworm damage than the transgenic seeds without such pesticide treatment
